Experimental data from ChEMBL document CHEMBL3885861, “Open TG-GATES”.

Species on record: Rattus norvegicus
Test: Open TG-GATES - Regimen: Daily Repeat
Type: toxicity, organism-based, Sprague-Dawley
Design: regimen Daily Repeat, gender Male, age 6 weeks
Details: in vivo, po, 100 mg/kg, route gavage, dose level Middle; for APTT / Bas / Eos / Fbg / Hb / Ht / Lym / MCH / MCHC / MCV / Mono / Neu / PT / Plat / RBC / Ret / WBC: tissue Blood; for KIDNEY_L / KIDNEY_R / KIDNEY_TOTAL: tissue Kidney; for LIVER: tissue Liver; for A/G / ALP / ALT / AST / BUN / CRE / Ca / Cl / DBIL / GLC / IP / K / LDH / Na / PL / RALB / TBIL / TC / TG / TP / gamma-GTP: tissue Plasma

`Cc1cccc(Nc2ccccc2C(=O)O)c1C` [MEFENAMIC ACID] showed a TERMINAL_BW (72 h, time 3 day) of 234.2 g, an APTT (72 h, time 3 day) of 18.5 s and a Bas (72 h, time 3 day) of 0%. It also gave an Eos (72 h, time 3 day) of 1%, a Fbg (72 h, time 3 day) of 242.4 mg/dL and a Hb (72 h, time 3 day) of 13.5 g/dL. The Ht (72 h, time 3 day) was 38.1%, the Lym (72 h, time 3 day) was 79.2% and the MCH (72 h, time 3 day) was 22.1 pg. The MCHC (72 h, time 3 day) was 35.4%, the MCV (72 h, time 3 day) was 62.4 fL and the Mono (72 h, time 3 day) was 2.6%. It also gave a Neu (72 h, time 3 day) of 15.6%, a PT (72 h, time 3 day) of 12.1 s and a Plat (72 h, time 3 day) of 122.6 x10_4/uL. It also gave an RBC (72 h, time 3 day) of 611.8 x10_4/ul, a Ret (72 h, time 3 day) of 5.7% and a WBC (72 h, time 3 day) of 97.2 x10_2/uL. For the same compound, the KIDNEY_L (72 h, time 3 day) was 1 g, the KIDNEY_R (72 h, time 3 day) was 1 g and the KIDNEY_TOTAL (72 h, time 3 day) was 2 g. It also gave an LIVER (72 h, time 3 day) of 11.2 g, an A/G (72 h, time 3 day) of 1.6 and an ALP (72 h, time 3 day) of 1044 IU/L. The ALT (72 h, time 3 day) was 38.6 IU/L, the AST (72 h, time 3 day) was 65.4 IU/L and the BUN (72 h, time 3 day) was 14.8 mg/dL. It also gave a CRE (72 h, time 3 day) of 0.4 mg/dL, a Ca (72 h, time 3 day) of 10.9 mg/dL and a Cl (72 h, time 3 day) of 104 meq/L. The DBIL (72 h, time 3 day) was 0.098 mg/dL, the GLC (72 h, time 3 day) was 189.2 mg/dL and the IP (72 h, time 3 day) was 6.9 mg/dL. For the same compound, the K (72 h, time 3 day) was 4.2 meq/L, the LDH (72 h, time 3 day) was 191.6 IU/L and the Na (72 h, time 3 day) was 141.8 meq/L. It also gave a PL (72 h, time 3 day) of 148 mg/dL, an RALB (72 h, time 3 day) of 3.4 g/dL and a TBIL (72 h, time 3 day) of 0.2 mg/dL. It also gave a TC (72 h, time 3 day) of 81.6 mg/dL, a TG (72 h, time 3 day) of 88.2 mg/dL and a TP (72 h, time 3 day) of 5.5 g/dL. It also gave a gamma-GTP (72 h, time 3 day) of 1.6 IU/L, a TERMINAL_BW ([…], time 7 day) of 269.2 g and a TERMINAL_BW ([…], time 14 day) of 320.1 g. For the same compound, the TERMINAL_BW ([…], time 28 day) was 386.3 g, the APTT ([…], time 7 day) was 18.5 s and the Bas ([…], time 7 day) was 0%. The Eos ([…], time 7 day) was 1%, the Fbg ([…], time 7 day) was 230 mg/dL and the Hb ([…], time 7 day) was 13.6 g/dL. For the same compound, the Ht ([…], time 7 day) was 37.9%, the Lym ([…], time 7 day) was 80.2% and the MCH ([…], time 7 day) was 21.7 pg. The MCHC ([…], time 7 day) was 35.9%, the MCV ([…], time 7 day) was 60.6 fL and the Mono ([…], time 7 day) was 2.4%. It also gave a Neu ([…], time 7 day) of 14.4%, a PT ([…], time 7 day) of 11.9 s and a Plat ([…], time 7 day) of 121.4 x10_4/uL. For the same compound, the RBC ([…], time 7 day) was 626.4 x10_4/ul, the Ret ([…], time 7 day) was 5.4% and the WBC ([…], time 7 day) was 99.8 x10_2/uL. The APTT ([…], time 14 day) was 20.3 s, the Bas ([…], time 14 day) was 0% and the Eos ([…], time 14 day) was 0.8%. The Fbg ([…], time 14 day) was 246.8 mg/dL, the Hb ([…], time 14 day) was 14.4 g/dL and the Ht ([…], time 14 day) was 40.6%. The Lym ([…], time 14 day) was 76%, the MCH ([…], time 14 day) was 21.6 pg and the MCHC ([…], time 14 day) was 35.3%. For the same compound, the MCV ([…], time 14 day) was 61.2 fL, the Mono ([…], time 14 day) was 2.4% and the Neu ([…], time 14 day) was 18.6%. The PT ([…], time 14 day) was 12.4 s, the Plat ([…], time 14 day) was 104.3 x10_4/uL and the RBC ([…], time 14 day) was 664 x10_4/ul. For the same compound, the Ret ([…], time 14 day) was 4.4%, the WBC ([…], time 14 day) was 124.7 x10_2/uL and the APTT ([…], time 28 day) was 19.4 s. For the same compound, the Bas ([…], time 28 day) was 0%, the Eos ([…], time 28 day) was 1.2% and the Fbg ([…], time 28 day) was 261.8 mg/dL. For the same compound, the Hb ([…], time 28 day) was 15.8 g/dL, the Ht ([…], time 28 day) was 44.8% and the Lym ([…], time 28 day) was 75%. For the same compound, the MCH ([…], time 28 day) was 19.8 pg, the MCHC ([…], time 28 day) was 35.3% and the MCV ([…], time 28 day) was 56.3 fL. For the same compound, the Mono ([…], time 28 day) was 2.2%, the Neu ([…], time 28 day) was 20.6% and the PT ([…], time 28 day) was 12.3 s. The Plat ([…], time 28 day) was 98.4 x10_4/uL, the RBC ([…], time 28 day) was 796.8 x10_4/ul and the Ret ([…], time 28 day) was 2.3%. The WBC ([…], time 28 day) was 98.3 x10_2/uL, the KIDNEY_L ([…], time 7 day) was 1.1 g and the KIDNEY_R ([…], time 7 day) was 1.2 g. For the same compound, the KIDNEY_TOTAL ([…], time 7 day) was 2.2 g, the KIDNEY_L ([…], time 14 day) was 1.3 g and the KIDNEY_R ([…], time 14 day) was 1.4 g. The KIDNEY_TOTAL ([…], time 14 day) was 2.7 g, the KIDNEY_L ([…], time 28 day) was 1.4 g and the KIDNEY_R ([…], time 28 day) was 1.4 g. It also gave a KIDNEY_TOTAL ([…], time 28 day) of 2.8 g, an LIVER ([…], time 7 day) of 12 g and an LIVER ([…], time 14 day) of 14.3 g. The LIVER ([…], time 28 day) was 14.9 g, the A/G ([…], time 7 day) was 1.5 and the ALP ([…], time 7 day) was 825.2 IU/L. The ALT ([…], time 7 day) was 32.8 IU/L, the AST ([…], time 7 day) was 73.2 IU/L and the BUN ([…], time 7 day) was 17 mg/dL. For the same compound, the CRE ([…], time 7 day) was 0.4 mg/dL, the Ca ([…], time 7 day) was 10.7 mg/dL and the Cl ([…], time 7 day) was 103.2 meq/L. For the same compound, the DBIL ([…], time 7 day) was 0.078 mg/dL, the GLC ([…], time 7 day) was 219.2 mg/dL and the IP ([…], time 7 day) was 6.8 mg/dL. It also gave a K ([…], time 7 day) of 3.8 meq/L, an LDH ([…], time 7 day) of 177.4 IU/L and a Na ([…], time 7 day) of 140.2 meq/L. The PL ([…], time 7 day) was 150.8 mg/dL, the RALB ([…], time 7 day) was 3.4 g/dL and the TBIL ([…], time 7 day) was 0.1 mg/dL. The TC ([…], time 7 day) was 87.2 mg/dL, the TG ([…], time 7 day) was 62.2 mg/dL and the TP ([…], time 7 day) was 5.6 g/dL. It also gave a gamma-GTP ([…], time 7 day) of 1.2 IU/L, an A/G ([…], time 14 day) of 1.4 and an ALP ([…], time 14 day) of 798 IU/L. For the same compound, the ALT ([…], time 14 day) was 39.6 IU/L, the AST ([…], time 14 day) was 64.6 IU/L and the BUN ([…], time 14 day) was 18.2 mg/dL. For the same compound, the CRE ([…], time 14 day) was 0.5 mg/dL, the Ca ([…], time 14 day) was 10.6 mg/dL and the Cl ([…], time 14 day) was 103.4 meq/L. For the same compound, the DBIL ([…], time 14 day) was 0.086 mg/dL, the GLC ([…], time 14 day) was 208.2 mg/dL and the IP ([…], time 14 day) was 7.4 mg/dL. It also gave a K ([…], time 14 day) of 4 meq/L, an LDH ([…], time 14 day) of 138.4 IU/L and a Na ([…], time 14 day) of 140.8 meq/L. The PL ([…], time 14 day) was 149 mg/dL, the RALB ([…], time 14 day) was 3.3 g/dL and the TBIL ([…], time 14 day) was 0.2 mg/dL. For the same compound, the TC ([…], time 14 day) was 79 mg/dL, the TG ([…], time 14 day) was 81.8 mg/dL and the TP ([…], time 14 day) was 5.8 g/dL. It also gave a gamma-GTP ([…], time 14 day) of 1 IU/L, an A/G ([…], time 28 day) of 1.3 and an ALP ([…], time 28 day) of 673 IU/L. For the same compound, the ALT ([…], time 28 day) was 35.4 IU/L, the AST ([…], time 28 day) was 62.4 IU/L and the BUN ([…], time 28 day) was 18 mg/dL. The CRE ([…], time 28 day) was 0.5 mg/dL, the Ca ([…], time 28 day) was 10.7 mg/dL and the Cl ([…], time 28 day) was 104.2 meq/L. It also gave a DBIL ([…], time 28 day) of 0.088 mg/dL, a GLC ([…], time 28 day) of 219.4 mg/dL and an IP ([…], time 28 day) of 6.7 mg/dL. For the same compound, the K ([…], time 28 day) was 3.5 meq/L, the LDH ([…], time 28 day) was 143.8 IU/L and the Na ([…], time 28 day) was 141.2 meq/L. The PL ([…], time 28 day) was 156.8 mg/dL, the RALB ([…], time 28 day) was 3.6 g/dL and the TBIL ([…], time 28 day) was 0.1 mg/dL. It also gave a TC ([…], time 28 day) of 89.8 mg/dL, a TG ([…], time 28 day) of 81.6 mg/dL and a TP ([…], time 28 day) of 6.3 g/dL. For the same compound, the gamma-GTP ([…], time 28 day) was 1.6 IU/L.
